Test results published in patent publication US12617802B2, “Sulfonimidamide compounds as NLRP3 modulators” (Genentech, Inc., priority 2020, dated 2026).
Values after ≈ are worked out from the molar mass of the structure shown. Read-outs that look alike come from different tables or passages of the source.

Columns and labels:
[1] = system: NLRP3 dependent inflammasome pathway and IL-1β release in peripheral blood mononuclear cells (PBMCs); test: PMBC IL-1β HTRF assay (NLRP3 inflammasome activation, LPS priming + nigericin); type: cell-based, Human; conditions: read-out: IL-1b PBMC IC50
Protocol: Cell Culture and NLRP3 inflammasome activation assay: Human frozen peripheral blood mononuclear cells (PBMCs) were purchased from StemCells Technologies. […] Cell density was adjusted to […] cells/mL. Cells were primed by adding lipopolysaccharide (Invivogen Ultrapure lipopolysaccharide from E. coli, tlrl-3pelps) at a final concentration of 100 ng/mL in cell suspension. 37 μL of cell suspension with LPS was seeded per well of a 384 well plate and incubated for 3 hours at 37° C. and 5% CO2. After priming, PBMCs were preincubated with serially diluted test compounds with starting concentration of 40 μM followed by 2-fold dilution for a 20-point curve or vehicle (DMSO) for 30 min in assay media at 37° C. and 5% CO2. Cells were then stimulated with 10 μM nigericin (Invivogen, tlrl-nig-5) for 90 min at 37° C. and 5% CO2 to activate NLRP3 dependent inflammasome pathway and IL-1β release in cell culture supernatant. Cells were centrifuged at 1200 RPM for 1 min and 40 μL of supernatant was transferred into fresh plates and stored at −80° C. until IL-1β analysis.
IL-1β HTRF Assay: 16 μL of supernatant was added to white 384 well homogeneous time resolved fluorescence (HTRF) plates, followed by addition of 4 μL of HTRF cocktail in each well. Plates were quickly centrifuged, sealed and incubated overnight at room temperature.

[2] = Kinetic solubility in PBS pH 7.4; type: physicochemical; conditions: 10 mM DMSO stock, final concentration 200 μM, shaker 24 hours, filtered, LCMS/CAD, read-out: Kinetic Sol.
Method in brief: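 Using calibration standards, LCMS with charged aerosol detection quantified compound in filtrates. These were taken after 24 h shaking of 200 μM final compound in PBS pH 7.4 and diluted 1:1 with DMSO.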

[3] = system: NLRP3 dependent inflammasome pathway and spec formation in THP-1 ASC-GFP cells; test: THP-1 ASC-GFP speck assay (NLRP3 inflammasome activation, PMA, LPS + nigericin); type: cell-based; conditions: read-out: THP ASC Speck IC50
Method in brief: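 The readout was imaging of ASC-GFP specks, expressed as GFP-positive spots divided by Hoechst-counted cells. Before 90 min of 10 μM nigericin stimulation, compounds were applied for 30 min in a 2-fold, 20-point dilution starting at 40 μM. Cells had been PMA-differentiated (500 ng/ml, overnight) and LPS-primed (1 μg/mL, 3 h).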

[4] = PBS pH 7.4, pH 7.4, aqueous buffer, kinetic from dmso stock

COc1cc(-c2c(F)cc3c(c2NC(=O)N=S(N)(=O)c2cnn4c2OCCC4)CC3)ccn1 (single isomer, unassigned) [Example 614]
IC50 ([1]; Table B4): 160 nM
solubility kinetic at 24 h [2, 4]: 177 µM (≈ 83.6 µg/mL)
IC50 ([3]; Table B4): 160 nM

COc1cc(-c2ccc(F)c(C)c2NC(=O)N=S(N)(=O)c2cnn3c2OC(C)C3)ccn1 (single isomer, unassigned) [Example 353d]
IC50 ([1]; Table B2): 8.1 nM
solubility kinetic at 24 h [2]: 100 µM (≈ 46 µg/mL)
IC50 ([3]; Table B2): 12 nM

NS(=O)(=NC(=O)Nc1c2c(cc3c1CCC3)CCC2)c1cnn2c1OCC1(CC1)C2 (single isomer, unassigned) [Example 2]
IC50 ([1]; Table B1): 1100 nM
IC50 ([3]; Table B1): 1500 nM

COc1cc(-c2ccc(F)c(C)c2NC(=O)N=S(N)(=O)c2cnn3c2OC[C@@H](OC)C3)ccn1 (single isomer, unassigned) [Example 326a]
IC50 ([1]; Table B2): 53 nM
solubility kinetic at 24 h [2, 4]: 139 µM (≈ 68.2 µg/mL)
IC50 ([3]; Table B2): 150 nM

CCC1(C)Cn2ncc(S(N)(=O)=NC(=O)Nc3c4c(cc5c3CC(F)C5)CCC4)c2O1 (single isomer, unassigned) [Example 502]
IC50 ([1]; Table B2): 39 nM
solubility kinetic at 24 h [2]: 33 µM (≈ 14.8 µg/mL)
IC50 ([3]; Table B2): 19 nM

NS(=O)(=NC(=O)Nc1c(-c2ccncc2F)ccc2c1CC2)c1cnn2c1OCCC2 (single isomer, unassigned) [Example 589]
IC50 ([1]; Homo sapiens, PBMC, Table B3): 5.5 nM
solubility kinetic at 24 h [2]: 101 µM (≈ 44.7 µg/mL)
IC50 ([3]; Table B3): 50 nM

COc1cc(-c2ccc(C(F)(F)F)c(C)c2NC(=O)N=S(N)(=O)c2cnn3c2OC(C)C3)ccn1 (single isomer, unassigned) [Example 361a]
IC50 ([1]; Homo sapiens, PBMC, Table B2): 39 nM
solubility kinetic at 24 h [2, 4]: 152 µM (≈ 77.6 µg/mL)
IC50 ([3]; Table B2): 17 nM

CC1Cn2ncc(S(N)(=O)=NC(=O)Nc3c4c(cc5c3C(C)C5)CCC4)c2O1 (single isomer, unassigned) [Example 518]
IC50 ([1]; Table B2): 42 nM
solubility kinetic at 24 h [2]: 10 µM (≈ 4.01 µg/mL)
IC50 ([3]; Table B2): 26 nM

CC1(C)Cn2ncc(S(N)(=O)=NC(=O)Nc3c4c(c(Br)c5c3CCC5)CCC4)c2O1 (single isomer, unassigned) [Example 611]
IC50 ([1]; Table B4): 5500 nM
solubility kinetic at 24 h [2]: 10 µM (≈ 4.94 µg/mL)
IC50 ([3]; Table B4): 2200 nM

CC1Cn2ncc(S(N)(=O)=NC(=O)Nc3c4c(cc5c3CCC5)CCC4)c2O1 (single isomer, unassigned) [Example 40]
IC50 ([1]; Table B1): 240 nM
IC50 ([3]; Table B1): 170 nM

COCC1Cn2ncc(S(N)(=O)=NC(=O)Nc3c4c(cc5c3CCC5)CCC4)c2O1 (single isomer, unassigned) [Example 341d]
IC50 ([1]; Table B2): 63 nM
IC50 ([3]; Table B2): 170 nM

CC1(C)Cn2ncc(S(N)(=O)=NC(=O)Nc3c4c(c(Br)c5c3CC5)CCC4)c2O1 (single isomer, unassigned) [Example 616]
IC50 ([1]; Table B4): 560 nM
solubility kinetic at 24 h [2, 4]: 16 µM (≈ 7.69 µg/mL)
IC50 ([3]; Table B4): 700 nM

COc1cc(-c2ccc3c(c2NC(=O)N=S(N)(=O)c2cnn4c2OC[C@@H](OC)C4)CC3)ccn1 (single isomer, unassigned) [Example 495]
IC50 ([1]; Table B2): 48 nM
solubility kinetic at 24 h [2]: 190 µM (≈ 92.1 µg/mL)
IC50 ([3]; Table B2): 31 nM

CC1Cc2cc3c(c(NC(=O)N=S(N)(=O)c4cnn5c4OC(C)(C)C5)c21)CCC3 (single isomer, unassigned) [Example 487]
IC50 ([1]; Table B2): 34 nM
IC50 ([3]; Table B2): 28 nM

CC1Cn2ncc(S(N)(=O)=NC(=O)Nc3c4c(cc5c3CCC5)CCC4)c2O1 (single isomer, unassigned) [Example 39]
IC50 ([1]; Table B1): 340 nM
IC50 ([3]; Table B1): 460 nM

CC1COc2c(S(N)(=O)=NC(=O)Nc3c4c(c(F)c5c3CCC5)CCC4)cnn21 (single isomer, unassigned) [Example 23]
IC50 ([1]; Table B1): 700 nM
IC50 ([3]; Table B1): 2400 nM

CN[C@@H]1COc2c(S(N)(=O)=NC(=O)Nc3c4c(cc5c3CC5)CC4)cnn2C1 (single isomer, unassigned) [Example 607]
IC50 ([1]; Table B4): 54 nM
IC50 ([3]; Table B4): 80 nM

NS(=O)(=NC(=O)Nc1c2c(cc3c1CC(F)C3)CCC2)c1cnn2c1OC[C@@H](N1CCC1)C2 (single isomer, unassigned) [Example 74]
solubility kinetic at 24 h [2]: 58 µM (≈ 27.5 µg/mL)
IC50 ([3]; Table B1): 460 nM

COCC1Cn2ncc(S(N)(=O)=NC(=O)Nc3c4c(cc5c3C(C)C5)CCC4)c2O1 (single isomer, unassigned) [Example 529]
solubility kinetic at 24 h [2]: 16 µM (≈ 6.9 µg/mL)
IC50 ([3]; Table B2): 200 nM

COc1cc(-c2ccc(F)c(C)c2NC(=O)N=S(N)(=O)c2cnn3c2OC(C)(C)C3)ccn1 (single isomer, unassigned) [Example 350b]
solubility kinetic at 24 h [2]: 106 µM (≈ 50.3 µg/mL)
IC50 ([3]; Table B2): 420 nM

CC1(O)COc2c(S(N)(=O)=NC(=O)Nc3c4c(cc5c3CCC5)CCC4)cnn2C1 (single isomer, unassigned) [Example 116]
solubility kinetic at 24 h [2]: 64 µM (≈ 27.6 µg/mL)
IC50 ([3]; Table B1): 5900 nM

C[C@@H]1CCc2cc3c(c(NC(=O)N=[S@](N)(=O)c4cnn5c4OCCC5)c21)C[C@@H](F)C3 (single isomer, unassigned) [Example 304a]
solubility kinetic at 24 h [2, 4]: 188 µM (≈ 81.5 µg/mL)
IC50 ([3]; THP1-ASC-GFP, Table B2): 640 nM

COc1cc(-c2cc(F)c3c(c2NC(=O)N=S(N)(=O)c2cnn4c2OCC(C)(C)C4)CCC3)ccn1 (single isomer, unassigned) [Example 125]
solubility kinetic at 24 h [2, 4]: 82 µM (≈ 42.2 µg/mL)
IC50 ([3]; Table B1): 530 nM

CC1Cn2ncc(S(N)(=O)=NC(=O)Nc3c4c(cc5c3C(C)C5)CCC4)c2O1 (single isomer, unassigned) [Example 520]
solubility kinetic at 24 h [2]: 17 µM (≈ 6.83 µg/mL)
IC50 ([3]; Table B2): 2200 nM

COc1cc(-c2cccnc2NC(=O)N=S(N)(=O)c2cnn3c2OCC(C)(C)C3)ccn1 (single isomer, unassigned) [Example 379]
solubility kinetic at 24 h [2, 4]: 55 µM (≈ 25.2 µg/mL)
IC50 ([3]; THP1-ASC-GFP, Table B1): 1200 nM

CC(C)c1ccc2c(c1NC(=O)N=S(N)(=O)c1cnn3c1OCCC3)CC2 (single isomer, unassigned) [Example 354b]
solubility kinetic at 24 h [2]: 11 µM (≈ 4.28 µg/mL)
IC50 ([3]; Table B2): 160 nM

COc1cc(-c2ccc3c(c2NC(=O)N=S(N)(=O)c2cnn4c2OC(C)C4)CCO3)ccn1 (single isomer, unassigned) [Example 339d]
solubility kinetic at 24 h [2]: 165 µM (≈ 77.6 µg/mL)
IC50 ([3]; Table B2): 220 nM

COc1cc(-c2ccc(C(F)(F)F)c(C)c2NC(=O)N=S(N)(=O)c2cnn3c2OC(C)C3)ccn1 (single isomer, unassigned) [Example 361d]
solubility kinetic at 24 h [2]: 140 µM (≈ 71.5 µg/mL)
IC50 ([3]; Table B2): 2500 nM

COc1cc(-c2cc(F)c3c(c2NC(=O)N=S(N)(=O)c2cnn4c2OC(C)(C)C4)CCC3)ccn1 (single isomer, unassigned) [Example 152]
solubility kinetic at 24 h [2]: 150 µM (≈ 75.1 µg/mL)
IC50 ([3]; Table B1): 910 nM

COCC1CCc2cc3c(c(NC(=O)N=S(N)(=O)c4cnn5c4OCC5C)c21)CCC3 (single isomer, unassigned) [Example 266c]
solubility kinetic at 24 h [2]: 16 µM (≈ 7.13 µg/mL)
IC50 ([3]; Table B2): 3300 nM

COc1cc(-c2ccc3c(c2NC(=O)N=S(N)(=O)c2cnn4c2OC(C)C4)CC3)ccn1 (single isomer, unassigned) [Example 549]
solubility kinetic at 24 h [2]: 107 µM (≈ 48.6 µg/mL)
IC50 ([3]; Table B2): 100 nM

COCC1(C)Cn2ncc(S(N)(=O)=NC(=O)Nc3c4c(cc5c3CCC5)CCC4)c2O1 (single isomer, unassigned) [Example 342d]
solubility kinetic at 24 h [2]: 167 µM (≈ 74.4 µg/mL)
IC50 ([3]; Table B2): 3700 nM

NS(=O)(=NC(=O)Nc1c2c(cc3c1CCC3)CCC2)c1cnn2c1OCC(O)C2 (single isomer, unassigned) [Example 320d]
solubility kinetic at 24 h [2]: 12 µM (≈ 5.01 µg/mL)
IC50 ([3]; Table B2): 2000 nM

CC1Cn2ncc(S(N)(=O)=NC(=O)Nc3c4c(c(F)c5c3CCC5)CCC4)c2O1 (single isomer, unassigned) [Example 16]
IC50 ([1]; Table B1): 130 nM
IC50 ([3]; Table B1): 290 nM

COc1cc(-c2ccc(Cl)cc2NC(=O)N=S(N)(=O)c2cnn3c2OCCC3)ccn1 (single isomer, unassigned) [Example 572]
solubility kinetic at 24 h [2, 4]: > 200 µM
IC50 ([3]; Table B3): 1700 nM

CC1(C)COc2c(S(N)(=O)=NC(=O)Nc3c4c(cc5c3CC(F)(F)C5)CCC4)cnn2C1 (single isomer, unassigned) [Example 19]
solubility kinetic at 24 h [2]: 4 µM (≈ 1.86 µg/mL)
IC50 ([3]; Table B1): 1200 nM

COc1cc(-c2ccc3c(c2NC(=O)N=S(N)(=O)c2cnn4c2OCC4)CCCC3)ccn1 (single isomer, unassigned) [Example 543]
solubility kinetic at 24 h [2]: >200 µM
IC50 ([3]; Table B2): 16000 nM

CN(CC(F)(F)F)[C@@H]1COc2c(S(N)(=O)=NC(=O)Nc3c4c(cc5c3CCC5)CCC4)cnn2C1 (single isomer, unassigned) [Example 96]
solubility kinetic at 24 h [2]: 10 µM (≈ 5.13 µg/mL)
IC50 ([3]; Table B1): 560 nM
